Assay results from ChEMBL document CHEMBL1201862, “PubChem BioAssay data set” (2004).
Blank lines part the entries; values can stand above or below the compound they belong to. Active and inactive are the calls of the source.

Tests used:
Type in all cases: functional
[1] = biological target: Protein kinase C zeta type (Homo sapiens, UniProt Q05513);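 also: measured as one member of a broad kinase profiling panel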
[2] = biological target: Calcium/calmodulin-dependent protein kinase type II subunit beta (Homo sapiens, UniProt Q13554)
LIM domain kinase 1 = LIM domain kinase 1 (Homo sapiens, UniProt P53667); experiment: Navigating the Kinome. Panel member name: LIMK1
[3] = biological target: Cyclin-dependent kinase 5 (Homo sapiens, UniProt Q00535);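 also: CDK5 measured as one member of a kinase profiling panel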
[4] = biological target: Mast/stem cell growth factor receptor Kit (Homo sapiens, UniProt P10721);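 also: KIT entry within a kinase panel assay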
[5] = biological target: Interleukin-1 receptor-associated kinase 1 (Homo sapiens, UniProt P51617);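 also: IRAK1 tested as one member of a kinome panel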
[6] = biological target: Interleukin-1 receptor-associated kinase 4 (Homo sapiens, UniProt Q9NWZ3)
Misshapen-like kinase 1 = Misshapen-like kinase 1 (Homo sapiens, UniProt Q8N4C8);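 also: kinome panel screen with MINK as the panel member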
[7] = biological target: Serine/threonine-protein kinase Nek4 (Homo sapiens, UniProt P51957)
[8] = biological target: Mitogen-activated protein kinase kinase kinase kinase 5 (Homo sapiens, UniProt Q9Y4K4);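 also: measured as one member of a kinome-spanning kinase panel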
[9] = biological target: Insulin-like growth factor 1 receptor (Homo sapiens, UniProt P08069); experiment: Navigating the Kinome. Panel member name: IGF1R
[10] = biological target: Serine/threonine-protein kinase 3 (Homo sapiens, UniProt Q13188);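 also: measured as one member of a kinome-wide kinase panel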
[11] = biological target: RAC-gamma serine/threonine-protein kinase (Homo sapiens, UniProt Q9Y243)
Ephrin type-A receptor 2 = Ephrin type-A receptor 2 (Homo sapiens, UniProt P29317);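 also: EPHA2 tested as one member of a kinome-wide kinase panel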
[12] = biological target: Serine/threonine-protein kinase 17A (Homo sapiens, UniProt Q9UEE5)
[13] = biological target: Maternal embryonic leucine zipper kinase (Homo sapiens, UniProt Q14680)
[14] = biological target: Cell division cycle 7-related protein kinase (Homo sapiens, UniProt O00311);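 also: value obtained from a kinome-wide kinase panel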
[15] = biological target: Serine/threonine-protein kinase PLK1 (Homo sapiens, UniProt P53350);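 also: PLK1 measured as one member of a kinome-wide profiling panel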
[16] = biological target: Tyrosine-protein kinase ABL1 (Homo sapiens, UniProt P00519)
[17] = biological target: Testis-specific serine/threonine-protein kinase 1 (Homo sapiens, UniProt Q9BXA7)
[18] = biological target: Serine/threonine-protein kinase D2 (Homo sapiens, UniProt Q9BZL6);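 also: measured against PRKD2 as one member of a kinome-wide kinase profiling panel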
[19] = biological target: Calcium/calmodulin-dependent protein kinase type II subunit gamma (Homo sapiens, UniProt Q13555)
[20] = biological target: MAP kinase-activated protein kinase 5 (Homo sapiens, UniProt Q8IW41);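 also: measured as one member of a kinome panel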
[21] = biological target: RAC-alpha serine/threonine-protein kinase (Homo sapiens, UniProt P31749);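 also: AKT1 affinity measured as one member of a kinome-wide kinase profiling panel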
[22] = biological target: Tyrosine-protein kinase SYK (Homo sapiens, UniProt P43405)
[23] = biological target: cGMP-dependent protein kinase 1 (Homo sapiens, UniProt Q13976);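 also: value from a kinome panel screen with PRKG1 as the panel member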
[24] = biological target: Serine/threonine-protein kinase BRSK1 (Homo sapiens, UniProt Q8TDC3);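 also: measured within a kinome-wide kinase panel, with the target listed as KIAA1811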
[25] = biological target: Tyrosine-protein kinase ITK/TSK (Homo sapiens, UniProt Q08881);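 also: affinity for ITK measured as one member of a broad kinase panel profiling binding across the kinome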
[26] = biological target: Protein-tyrosine kinase 6 (Homo sapiens, UniProt Q13882)
[27] = biological target: Serine/threonine-protein kinase Chk2 (Homo sapiens, UniProt O96017);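 also: CHEK2 entry within a kinome-wide screening panel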
[28] = biological target: Proto-oncogene tyrosine-protein kinase Src (Homo sapiens, UniProt P12931);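 also: SRC entry within a kinome-wide kinase profiling panel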
[29] = biological target: Tyrosine-protein kinase FRK (Homo sapiens, UniProt P42685);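 also: FRK tested as one member of a kinome panel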
[30] = biological target: Non-receptor tyrosine-protein kinase TYK2 (Homo sapiens, UniProt P29597)
[31] = biological target: BDNF/NT-3 growth factors receptor (Homo sapiens, UniProt Q16620);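 also: NTRK2 measured as one member of a broad kinome-wide kinase profiling panel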
[32] = biological target: Tyrosine-protein kinase Fer (Homo sapiens, UniProt P16591);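 also: FER tested as one member of a kinome panel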
[33] = Luminescence Cell-Based Dose Response HTS to Identify Activators of Luciferase Translation or Activity in H4 […] Cells. [Related pubchem assays: 1829 (Project Summary), 1814 (Primary HTS)]
[34] = biological target: T1, Sentrin-specific protease 8 (Homo sapiens, UniProt Q96LD8)
T1 sequence (Q96LD8 whole entry): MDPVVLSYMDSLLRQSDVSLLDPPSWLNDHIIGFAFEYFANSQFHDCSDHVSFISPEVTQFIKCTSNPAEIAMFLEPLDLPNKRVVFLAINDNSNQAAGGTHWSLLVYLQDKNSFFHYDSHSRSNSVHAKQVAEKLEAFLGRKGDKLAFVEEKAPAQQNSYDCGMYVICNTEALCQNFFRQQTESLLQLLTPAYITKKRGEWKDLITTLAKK

[35] = biological target: T1, Sentrin-specific protease 8; remark: listed apart in the source
[36] = biological target: Tyrosine-protein kinase Lck (Homo sapiens, UniProt P06239);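 also: lck was assayed as one member of a kinase panel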
[37] = biological target: Platelet-derived growth factor receptor beta (Homo sapiens, UniProt P09619);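 also: value comes from a kinome panel, with PDGFRB tested as one panel member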

Chain of Tyrosine-protein kinase Fer (P16591 whole entry): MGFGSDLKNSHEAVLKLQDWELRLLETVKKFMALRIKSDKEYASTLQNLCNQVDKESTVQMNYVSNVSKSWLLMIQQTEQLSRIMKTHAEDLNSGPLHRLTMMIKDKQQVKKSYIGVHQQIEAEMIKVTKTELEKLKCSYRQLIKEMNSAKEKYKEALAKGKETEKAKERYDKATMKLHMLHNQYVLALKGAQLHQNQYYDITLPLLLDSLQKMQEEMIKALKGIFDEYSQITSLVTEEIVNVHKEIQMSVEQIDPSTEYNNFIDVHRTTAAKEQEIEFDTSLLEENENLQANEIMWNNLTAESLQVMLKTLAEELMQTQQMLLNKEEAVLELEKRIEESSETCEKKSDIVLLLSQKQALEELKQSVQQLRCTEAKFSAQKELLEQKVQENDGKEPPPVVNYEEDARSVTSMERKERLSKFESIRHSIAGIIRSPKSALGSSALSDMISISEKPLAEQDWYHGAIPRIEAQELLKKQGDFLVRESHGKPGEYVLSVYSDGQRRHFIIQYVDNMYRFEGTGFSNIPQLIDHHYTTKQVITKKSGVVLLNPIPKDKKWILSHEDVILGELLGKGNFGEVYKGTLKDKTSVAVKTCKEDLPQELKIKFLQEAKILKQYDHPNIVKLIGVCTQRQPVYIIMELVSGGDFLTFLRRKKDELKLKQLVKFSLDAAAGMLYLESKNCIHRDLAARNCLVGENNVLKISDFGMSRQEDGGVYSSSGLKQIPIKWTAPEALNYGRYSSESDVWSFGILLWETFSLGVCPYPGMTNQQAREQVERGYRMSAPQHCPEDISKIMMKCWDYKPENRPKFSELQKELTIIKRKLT
Chain of Mast/stem cell growth factor receptor Kit (P10721 whole entry): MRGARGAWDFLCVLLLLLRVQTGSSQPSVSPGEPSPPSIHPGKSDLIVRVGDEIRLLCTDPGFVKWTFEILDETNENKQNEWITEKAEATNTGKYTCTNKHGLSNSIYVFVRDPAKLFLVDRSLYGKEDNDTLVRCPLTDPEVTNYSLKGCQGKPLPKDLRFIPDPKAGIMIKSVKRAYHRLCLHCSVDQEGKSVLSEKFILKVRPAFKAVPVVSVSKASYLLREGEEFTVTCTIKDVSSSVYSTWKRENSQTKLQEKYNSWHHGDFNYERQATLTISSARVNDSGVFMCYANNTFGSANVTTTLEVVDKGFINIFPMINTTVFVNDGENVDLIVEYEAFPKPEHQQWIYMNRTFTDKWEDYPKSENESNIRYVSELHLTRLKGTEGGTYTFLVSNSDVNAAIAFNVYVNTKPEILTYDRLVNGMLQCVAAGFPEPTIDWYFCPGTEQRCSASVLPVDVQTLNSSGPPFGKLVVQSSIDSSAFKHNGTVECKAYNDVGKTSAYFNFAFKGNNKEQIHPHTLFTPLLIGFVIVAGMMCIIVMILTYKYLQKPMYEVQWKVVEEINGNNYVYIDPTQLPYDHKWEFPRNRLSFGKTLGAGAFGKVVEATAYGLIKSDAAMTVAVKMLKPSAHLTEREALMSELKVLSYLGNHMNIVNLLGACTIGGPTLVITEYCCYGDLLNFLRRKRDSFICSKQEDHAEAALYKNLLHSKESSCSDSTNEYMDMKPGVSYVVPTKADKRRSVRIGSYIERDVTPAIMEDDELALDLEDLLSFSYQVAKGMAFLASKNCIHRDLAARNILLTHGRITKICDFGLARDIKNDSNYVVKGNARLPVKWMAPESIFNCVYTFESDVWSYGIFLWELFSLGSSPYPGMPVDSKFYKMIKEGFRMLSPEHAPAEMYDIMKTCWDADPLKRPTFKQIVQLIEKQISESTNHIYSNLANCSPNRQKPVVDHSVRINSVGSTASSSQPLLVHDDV
Chain of Interleukin-1 receptor-associated kinase 1 (P51617 whole entry): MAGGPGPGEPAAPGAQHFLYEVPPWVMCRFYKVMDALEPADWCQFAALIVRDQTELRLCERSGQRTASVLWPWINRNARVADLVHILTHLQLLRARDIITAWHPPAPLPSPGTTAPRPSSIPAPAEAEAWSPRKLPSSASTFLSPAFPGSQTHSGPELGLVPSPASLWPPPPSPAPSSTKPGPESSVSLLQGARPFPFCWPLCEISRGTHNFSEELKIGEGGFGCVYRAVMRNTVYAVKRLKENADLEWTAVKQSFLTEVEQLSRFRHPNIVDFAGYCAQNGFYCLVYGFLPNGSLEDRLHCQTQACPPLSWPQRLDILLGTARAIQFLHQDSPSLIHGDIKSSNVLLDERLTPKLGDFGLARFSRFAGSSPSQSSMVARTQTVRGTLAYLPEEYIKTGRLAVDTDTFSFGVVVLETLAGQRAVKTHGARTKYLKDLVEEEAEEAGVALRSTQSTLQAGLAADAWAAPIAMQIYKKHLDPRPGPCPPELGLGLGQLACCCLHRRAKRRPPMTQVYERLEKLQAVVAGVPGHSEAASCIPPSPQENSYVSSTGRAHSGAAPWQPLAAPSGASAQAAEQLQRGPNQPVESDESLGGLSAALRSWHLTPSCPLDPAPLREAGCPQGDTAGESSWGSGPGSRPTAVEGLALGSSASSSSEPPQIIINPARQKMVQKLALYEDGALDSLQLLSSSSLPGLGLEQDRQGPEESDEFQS
Chain of Misshapen-like kinase 1 (Q8N4C8 whole entry): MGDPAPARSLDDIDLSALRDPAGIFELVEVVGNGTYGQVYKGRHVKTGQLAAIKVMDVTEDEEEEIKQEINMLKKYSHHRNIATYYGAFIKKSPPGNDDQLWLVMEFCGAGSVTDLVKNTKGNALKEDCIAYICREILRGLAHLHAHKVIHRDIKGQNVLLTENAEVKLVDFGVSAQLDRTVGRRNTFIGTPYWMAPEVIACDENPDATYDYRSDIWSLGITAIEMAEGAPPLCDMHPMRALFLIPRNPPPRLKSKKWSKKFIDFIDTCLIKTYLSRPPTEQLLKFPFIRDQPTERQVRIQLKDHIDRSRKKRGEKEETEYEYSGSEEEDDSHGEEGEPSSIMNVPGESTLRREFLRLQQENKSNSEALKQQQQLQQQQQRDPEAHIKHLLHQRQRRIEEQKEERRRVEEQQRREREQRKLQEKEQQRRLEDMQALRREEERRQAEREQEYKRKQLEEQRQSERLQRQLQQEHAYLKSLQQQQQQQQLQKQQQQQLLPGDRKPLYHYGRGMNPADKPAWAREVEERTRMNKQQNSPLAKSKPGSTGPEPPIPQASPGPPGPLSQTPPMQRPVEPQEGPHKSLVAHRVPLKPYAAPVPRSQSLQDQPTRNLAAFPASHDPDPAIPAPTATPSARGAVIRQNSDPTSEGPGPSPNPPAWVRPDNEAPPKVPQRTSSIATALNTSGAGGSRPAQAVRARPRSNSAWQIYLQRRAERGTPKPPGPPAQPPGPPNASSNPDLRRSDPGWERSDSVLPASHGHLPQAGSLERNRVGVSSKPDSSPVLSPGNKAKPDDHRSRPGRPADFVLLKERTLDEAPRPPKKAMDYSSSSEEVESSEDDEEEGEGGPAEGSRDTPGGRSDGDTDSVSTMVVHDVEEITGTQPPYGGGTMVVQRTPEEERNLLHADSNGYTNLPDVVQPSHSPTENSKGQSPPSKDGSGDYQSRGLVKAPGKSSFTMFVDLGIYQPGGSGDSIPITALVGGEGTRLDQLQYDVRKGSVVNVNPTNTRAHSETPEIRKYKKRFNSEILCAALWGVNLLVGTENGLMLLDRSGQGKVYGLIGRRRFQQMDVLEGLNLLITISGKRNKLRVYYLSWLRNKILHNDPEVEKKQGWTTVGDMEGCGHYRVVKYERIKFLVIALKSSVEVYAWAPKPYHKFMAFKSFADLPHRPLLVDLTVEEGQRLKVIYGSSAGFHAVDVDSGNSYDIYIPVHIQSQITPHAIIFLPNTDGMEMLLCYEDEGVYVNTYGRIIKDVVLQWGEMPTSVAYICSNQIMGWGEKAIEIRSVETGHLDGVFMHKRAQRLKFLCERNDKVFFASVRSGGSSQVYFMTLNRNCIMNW
Chain of Serine/threonine-protein kinase BRSK1 (Q8TDC3 whole entry): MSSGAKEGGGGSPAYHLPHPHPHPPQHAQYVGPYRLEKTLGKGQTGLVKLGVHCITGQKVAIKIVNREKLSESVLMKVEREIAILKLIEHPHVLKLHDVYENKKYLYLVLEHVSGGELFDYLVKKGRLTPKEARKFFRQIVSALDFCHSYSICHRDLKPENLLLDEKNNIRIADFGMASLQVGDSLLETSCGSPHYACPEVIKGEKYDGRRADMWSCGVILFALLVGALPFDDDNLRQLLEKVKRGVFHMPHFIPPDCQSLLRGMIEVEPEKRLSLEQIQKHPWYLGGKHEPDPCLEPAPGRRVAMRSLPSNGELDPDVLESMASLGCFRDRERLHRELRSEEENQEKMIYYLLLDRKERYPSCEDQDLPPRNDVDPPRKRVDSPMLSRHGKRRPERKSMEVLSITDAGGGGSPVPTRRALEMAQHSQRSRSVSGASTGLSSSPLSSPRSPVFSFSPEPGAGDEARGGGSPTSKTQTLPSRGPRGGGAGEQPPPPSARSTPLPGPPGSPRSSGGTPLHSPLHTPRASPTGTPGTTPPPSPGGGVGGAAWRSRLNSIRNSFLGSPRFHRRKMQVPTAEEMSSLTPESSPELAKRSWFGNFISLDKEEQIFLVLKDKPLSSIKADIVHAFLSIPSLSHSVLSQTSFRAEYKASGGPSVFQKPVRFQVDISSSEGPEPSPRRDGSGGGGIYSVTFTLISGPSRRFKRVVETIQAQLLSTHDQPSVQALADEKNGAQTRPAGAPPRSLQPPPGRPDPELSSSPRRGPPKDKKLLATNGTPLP
Chain of Cyclin-dependent kinase 5 (Q00535 whole entry): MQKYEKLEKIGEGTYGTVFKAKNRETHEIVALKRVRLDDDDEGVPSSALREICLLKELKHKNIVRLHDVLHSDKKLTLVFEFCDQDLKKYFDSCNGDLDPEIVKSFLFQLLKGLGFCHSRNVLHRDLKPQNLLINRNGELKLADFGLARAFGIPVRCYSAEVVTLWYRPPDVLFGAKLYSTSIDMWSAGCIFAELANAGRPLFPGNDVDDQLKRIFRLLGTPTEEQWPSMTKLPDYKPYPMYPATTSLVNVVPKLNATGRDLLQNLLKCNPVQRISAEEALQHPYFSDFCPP

SMILES: COC(C(=O)N1Cc2[nH]nc(NC(=O)c3ccc(N4CCN(C)CC4)cc3)c2C1)c1ccccc1 (stereo not given)
Ki [1]: > 7.94 µM (inactive)
Ki [2]: 7.94 µM (active)

SMILES: NC1CCC(Nc2nccc(-c3c[nH]c4ncccc34)n2)CC1 (stereo not given)
Ki [4]: > 1.26 µM (inactive)
Ki [5]: 0.126 µM (active)
Ki [6]: 0.0501 µM (active)
Ki (Misshapen-like kinase 1): 0.251 µM (active)
Ki [7]: 2 µM (active)
Ki [8]: 0.0251 µM (active)
Ki [9]: > 2 µM (inactive)
Ki [10]: 0.0398 µM (active)
Ki [11]: 0.631 µM (active)
Ki (Ephrin type-A receptor 2): > 3.16 µM (inactive)
Ki [12]: 0.0316 µM (active)
Ki [13]: 0.126 µM (active)
Ki [14]: 0.00501 µM (active)
Ki [15]: > 7.94 µM (inactive)
Ki [16]: > 0.631 µM (inactive)
Ki [17]: 0.0631 µM (active)
Ki [18]: 0.0251 µM (active)
Ki [19]: 0.00398 µM (active)
Ki [20]: > 1.58 µM (inactive)
Ki [21]: 1.26 µM (active)
Ki [22]: > 1.58 µM (inactive)
Ki [23]: 0.1 µM (active)
Ki [24]: 5.01 µM (active)
Ki [25]: 0.631 µM (active)
Ki [26]: > 2.51 µM (inactive)
Ki [27]: > 1.58 µM (inactive)
Ki [28]: > 2 µM (inactive)
Ki [29]: 0.501 µM (active)
Ki [30]: 0.794 µM (active)
Ki [31]: > 5.01 µM (inactive)
Ki [32]: 1 µM (active)

SMILES: O=C1C2=[N+]([O-])[C@H]3CCCC[C@H]3[N+]([O-])=C2c2ccccc21
EC50 [33]: 14.9 µM (active)
IC50 [34]: 21.5 µM (active)
IC50 [35]: 2.68 µM (active)

Now from value to compound:

Ki (LIM domain kinase 1): 15.8 µM (active)
Ki [3]: 5.01 µM (active)
SMILES: CC(C)(O)c1cn(-c2ccc3[nH]ncc3c2)nn1

Ki [36]: 100 µM (active)
Ki [37]: 50.1 µM (active)
SMILES: OCc1cc(-c2ccc3[nH]ncc3c2)on1
